How the values were obtained:
Type in all cases: in vivo
[1] = system: barnyardgrass (Echinochloa crus-galli); assay: Test A pre-/postemergence plant response
Procedure, shortened: (§1)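 Both pre- and postemergence treatments are applied simultaneously, using chemicals formulated in a non-phytotoxic solvent mixture with surfactant. Postemergence plants are 2–10 cm high with one to two leaves. After approximately ten days in a greenhouse, injury is scored visually from 0 (none) to 100 (complete control) relative to untreated plants.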

[2] = system: corn (Zea mays); assay: Test A pre-/postemergence plant response
Procedure, shortened: as §1

[3] = system: giant foxtail (Setaria faberii); assay: Test A pre-/postemergence plant response
Procedure, shortened: as §1

[4] = system: large crabgrass (Digitaria sanguinalis); assay: Test A pre-/postemergence plant response
Procedure, shortened: as §1

[5] = system: morningglory (Ipomoea spp.); assay: Test A pre-/postemergence plant response
Procedure, shortened: as §1

[6] = system: pigweed (Amaranthus retroflexus); assay: Test A pre-/postemergence plant response
Procedure, shortened: as §1

[7] = system: velvetleaf (Abutilon theophrasti); assay: Test A pre-/postemergence plant response
Procedure, shortened: as §1

[8] = system: wheat (Triticum aestivum); assay: Test A pre-/postemergence plant response
Procedure, shortened: as §1

[9] = system: barnyardgrass (Echinochloa crus-galli); assay: Test B flooded paddy test; settings: for Plant response rating, Flood, Barnyardgrass: 250 g ai/ha, flooded paddy test, visual rating on 0 to 100 scale (0 no effect, 100 complete control) after 13 to 15 days; for Plant response rating, Barnyardgrass: Flood (flooded paddy test), 13 to 15 days; for Barnyardgrass plant response rating: Flood, 31 g ai/ha, scale 0 to 100 (0 no effect, 100 complete control)
Procedure, shortened: (§2)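 Each compound is added to standing floodwater (3 cm above soil, maintained) in pots of 2-leaf-stage plants; greenhouse exposure lasts 13–15 d before visual comparison with controls on a 0–100 control scale.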

[10] = system: ducksalad (Heteranthera limosa); assay: Test B flooded paddy test; settings: for Plant response rating, Flood, Ducksalad: 250 g ai/ha, flooded paddy test, visual rating on 0 to 100 scale (0 no effect, 100 complete control) after 13 to 15 days; for Plant response rating, Ducksalad: Flood (flooded paddy test), 13 to 15 days; for Ducksalad plant response rating: Flood, 31 g ai/ha, scale 0 to 100 (0 no effect, 100 complete control)
Procedure, shortened: as §2

[11] = system: rice (Oryza sativa); assay: Test B flooded paddy test; settings: for Plant response rating, Flood, Rice: 250 g ai/ha, flooded paddy test, visual rating on 0 to 100 scale (0 no effect, 100 complete control) after 13 to 15 days; for Plant response rating, Rice: Flood (flooded paddy test), 13 to 15 days; for Rice plant response rating: Flood, 31 g ai/ha, scale 0 to 100 (0 no effect, 100 complete control)
Procedure, shortened: as §2

[12] = system: umbrella sedge (Cyperus difformis); assay: Test B flooded paddy test; settings: for Plant response rating, Flood, Sedge, Umbrella: 250 g ai/ha, flooded paddy test, visual rating on 0 to 100 scale (0 no effect, 100 complete control) after 13 to 15 days; for Plant response rating, Sedge, Umbrella: Flood (flooded paddy test), 13 to 15 days; for Sedge, Umbrella plant response rating: Flood, 31 g ai/ha, scale 0 to 100 (0 no effect, 100 complete control)
Procedure, shortened: as §2

[13] = Postemergence, 125 g ai/ha, 0 to 100 scale where 0 is no effect and 100 is complete control
[14] = Postemergence, 500 g ai/ha, visual injury, 0 to 100 scale (0 no effect, 100 complete control), approx. ten days
[15] = Preemergence, 125 g ai/ha, 0 to 100 scale, 0 = no effect, 100 = complete control
[16] = Preemergence, 500 g ai/ha, 0 to 100 scale, 0 = no effect, 100 = complete control
[17] = 62 g ai/ha, scale of 0 to 100 where 0 is no effect and 100 is complete control
[18] = 125 g ai/ha, scale 0 to 100, 0 is no effect, 100 is complete control
[19] = Postemergence, 500 g ai/ha, 0 to 100 scale, 0 = no effect, 100 = complete control, approx. ten days
[20] = Preemergence, 500 g ai/ha, visual injury, 0 to 100 scale (0 no effect, 100 complete control), approx. ten days

O=C1CCCC(O)=C1C(=O)c1cnc(-c2cccc(F)c2)n(-c2ccccc2)c1=O [Compound 199]
20: Plant response rating, Barnyardgrass [1, 15] | Plant response rating, Corn [2, 15] | Plant response rating, Wheat [8, 16]
100: Barnyardgrass plant response rating [1, 14] | Plant response rating, Foxtail, Giant [3, 13] | Foxtail, Giant plant response rating [3, 14] | Crabgrass, Large plant response rating [4, 14] | Plant response rating, Crabgrass, Large [4, 16] | Plant response rating, Morningglory [5, 13] | Morningglory plant response rating [5, 14] | Plant response rating, Pigweed [6, 13] | Pigweed plant response rating [6, 14] | Plant response rating, Pigweed [6, 16] | Plant response rating, Velvetleaf [7, 13] | Velvetleaf plant response rating [7, 14] | Plant response rating, Velvetleaf [7, 16]
0: Plant response rating, Corn [2, 13] | Plant response rating, Wheat [8, 13] | Plant response rating, Wheat [8, 15] | Plant response rating, Barnyardgrass [9, 17] | Barnyardgrass plant response rating [9] | Plant response rating, Flood, Rice [11] | Plant response rating, Rice [11, 17] | Plant response rating, Rice [11, 18] | Rice plant response rating [11]
25: Plant response rating, Flood, Barnyardgrass [9]
15: Plant response rating, Barnyardgrass [9, 18]
60: Plant response rating, Foxtail, Giant [3, 15] | Plant response rating, Crabgrass, Large [4, 15] | Sedge, Umbrella plant response rating [12]
75: Plant response rating, Sedge, Umbrella [12, 18]
85: Plant response rating, Ducksalad [10, 17] | Plant response rating, Ducksalad [10, 18] | Ducksalad plant response rating [10] | Plant response rating, Flood, Sedge, Umbrella [12]
10: Wheat plant response rating [8, 14]
30: Plant response rating, Corn [2, 16]
80: Plant response rating, Morningglory [5, 16] | Plant response rating, Pigweed [6, 15]
50: Corn plant response rating [2, 14]
70: Plant response rating, Crabgrass, Large [4, 13] | Plant response rating, Morningglory [5, 15] | Plant response rating, Sedge, Umbrella [12, 17]
90: Plant response rating, Barnyardgrass [1, 13] | Plant response rating, Barnyardgrass [1, 16] | Plant response rating, Foxtail, Giant [3, 16] | Plant response rating, Velvetleaf [7, 15] | Plant response rating, Flood, Ducksalad [10]

CCCCn1c(-c2cccc(F)c2)ncc(C(=O)C2=C(O)CCCC2=O)c1=O [Compound 125]
80: Plant response rating, Foxtail, Giant [3, 20] | Plant response rating, Crabgrass, Large [4, 15] | Plant response rating, Morningglory [5, 13] | Plant response rating, Morningglory [5, 19]
25: Plant response rating, Barnyardgrass [9, 17] | Sedge, Umbrella plant response rating [12]
60: Plant response rating, Velvetleaf [7, 15] | Plant response rating, Flood, Barnyardgrass [9] | Plant response rating, Ducksalad [10, 18]
70: Plant response rating, Barnyardgrass [1, 13] | Plant response rating, Foxtail, Giant [3, 13] | Plant response rating, Crabgrass, Large [4, 13] | Plant response rating, Flood, Ducksalad [10]
90: Plant response rating, Barnyardgrass [1, 19] | Plant response rating, Barnyardgrass [1, 20] | Plant response rating, Foxtail, Giant [3, 19] | Plant response rating, Crabgrass, Large [4, 19] | Plant response rating, Pigweed [6, 13] | Plant response rating, Pigweed [6, 15] | Plant response rating, Pigweed [6, 20] | Plant response rating, Flood, Sedge, Umbrella [12] | Plant response rating, Sedge, Umbrella [12, 18]
100: Plant response rating, Crabgrass, Large [4, 20] | Plant response rating, Pigweed [6, 19] | Plant response rating, Velvetleaf [7, 13] | Plant response rating, Velvetleaf [7, 19] | Plant response rating, Velvetleaf [7, 20]
40: Plant response rating, Foxtail, Giant [3, 15] | Plant response rating, Barnyardgrass [9, 18] | Plant response rating, Ducksalad [10, 17]
20: Plant response rating, Corn [2, 19] | Ducksalad plant response rating [10]
10: Plant response rating, Barnyardgrass [1, 15] | Plant response rating, Wheat [8, 19]
35: Plant response rating, Sedge, Umbrella [12, 17]
0: Plant response rating, Corn [2, 13] | Plant response rating, Corn [2, 15] | Plant response rating, Corn [2, 20] | Plant response rating, Morningglory [5, 15] | Plant response rating, Morningglory [5, 20] | Plant response rating, Wheat [8, 13] | Plant response rating, Wheat [8, 15] | Plant response rating, Wheat [8, 20] | Barnyardgrass plant response rating [9] | Plant response rating, Flood, Rice [11] | Plant response rating, Rice [11, 17] | Plant response rating, Rice [11, 18] | Rice plant response rating [11]

— patent US8952024B2, “Herbicidal pyrimidone derivatives” (E I du Pont de Nemours and Company, priority 2009, dated 2015)
